Laboratory results taken from patent US20220403001A1, “PDE5 DERIVED REGULATORY CONSTRUCTS AND METHODS OF USE IN IMMUNOTHERAPY” (Obsidian Therapeutics, Inc., priority 2018, published 2022).

What was measured:
[1] = biological target: hPDE5 mutants (Homo sapiens, UniProt O76074); experiment: GFP FACS analysis of hPDE5 mutant library clones in NIH3T3 cell pools; details: experiment 1
[2] = system: hPDE5 mutants; experiment: as above; details: experiment 1

“LibC000015: hPDE5 (Amino acid 535-860 of WT, T571S, V585M, T723S), DD generated by random mutagenesis” was tested, and the “MFI 10 μM VDF” value ([1]; GFP, NIH3T3 cell pools, 10 μM vardenafil 24 hr) was 1951, the “MFI DMSO” value ([1]; GFP, NIH3T3 cell pools, no ligand (DMSO)) was 174 and the “GFP FACS analysis (MFI)” value ([1]; SDF 3.704 μM) was 331. For the same substance, the “GFP FACS analysis (MFI)” value ([1]; SDF 11.111 μM) was 357, the “GFP FACS analysis (MFI)” value ([1]; SDF 33.333 μM) was 432 and the “GFP FACS analysis (MFI)” value ([1]; SDF 100 μM) was 630. The “GFP FACS analysis (MFI)” value ([1]; TDF 3.704 μM) was 326, the “GFP FACS analysis (MFI)” value ([1]; TDF 11.111 μM) was 374 and the “GFP FACS analysis (MFI)” value ([1]; TDF 33.333 μM) was 463. The “GFP FACS analysis (MFI)” value ([1]; TDF 100 μM) was 518, the “GFP FACS analysis (MFI)” value ([1]; VDF 1.235 μM) was 756 and the “GFP FACS analysis (MFI)” value ([1]; VDF 3.704 μM) was 1383. The “GFP FACS analysis (MFI)” value ([1]; VDF 11.111 μM) was 2315, the “GFP FACS analysis (MFI)” value ([1]; VDF 33.333 μM) was 3166 and the “GFP FACS analysis (MFI)” value ([1]; VDF 100 μM) was 3069. For the same substance, the “GFP FACS analysis (MFI)” value ([2]; DMSO (no ligand), SDF series) was 301, the “GFP FACS analysis (MFI)” value ([2]; DMSO (no ligand), TDF series) was 306 and the “GFP FACS analysis (MFI)” value ([2]; DMSO (no ligand), VDF series) was 373. The “GFP FACS analysis (MFI)” value ([2]; SDF 1.235 μM) was 320, the Percent stabilization effect ([2]; SDF 1.235 μM) was 5.8% and the Percent stabilization effect ([2]; SDF 3.704 μM) was 9.1%. The Percent stabilization effect ([2]; SDF 11.111 μM) was 17.0%, the Percent stabilization effect ([2]; SDF 33.333 μM) was 39.8% and the Percent stabilization effect ([2]; SDF 100 μM (set as 100%)) was 100.0%. The “GFP FACS analysis (MFI)” value ([2]; TDF 1.235 μM) was 311, the Percent stabilization effect ([2]; TDF 1.235 μM) was 2.4% and the Percent stabilization effect ([2]; TDF 3.704 μM) was 9.4%. For the same substance, the Percent stabilization effect ([2]; TDF 11.111 μM) was 32.1%, the Percent stabilization effect ([2]; TDF 33.333 μM) was 74.1% and the Percent stabilization effect ([2]; TDF 100 μM (set as 100%)) was 100.0%. The Percent stabilization effect ([2]; VDF 1.235 μM) was 14.2%, the Percent stabilization effect ([2]; VDF 3.704 μM) was 37.5% and the Percent stabilization effect ([2]; VDF 11.111 μM) was 72.0%. For the same substance, the Percent stabilization effect ([2]; VDF 33.333 μM) was 103.6% and the Percent stabilization effect ([2]; VDF 100 μM (set as 100%)) was 100.0%.
